PubChem BioAssay (NCI)
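Compound exposure: 48 hours, 5 concentrations, 96-well plates. TGI: concentration producing complete growth inhibition.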

Tests used:
Assay in all cases: growth of human tumour cells (NCI), 48 h
[1] = tested on: SK-MEL-5 melanoma
[2] = tested on: KM12 colon
[3] = tested on: TK-10 renal
[4] = tested on: SNB-19 CNS
[5] = tested on: HCT-15 colon
[6] = tested on: A498 renal
[7] = tested on: EKVX NSCLC
[8] = tested on: NCI/ADR-RES ovarian
[9] = tested on: M14 melanoma
[10] = tested on: SR leukemia
[11] = tested on: COLO 205 colon
[12] = tested on: SW-620 colon
[13] = tested on: SF-295 CNS
[14] = tested on: U251 CNS
[15] = tested on: HT29 colon
[16] = tested on: MOLT-4 leukemia
[17] = tested on: A549 NSCLC
[18] = tested on: BT-549 breast
[19] = tested on: CCRF-CEM leukemia
[20] = tested on: HCT-116 colon
[21] = tested on: UACC-257 melanoma
[22] = tested on: NCI-H522 lung
[23] = tested on: 786-0 renal
[24] = tested on: MDA-MB-231 breast
[25] = tested on: SNB-75 CNS
[26] = tested on: NCI-H460 lung
[27] = tested on: MDA-N
[28] = tested on: HCC-2998 colon
[29] = tested on: CAKI-1 renal
[30] = tested on: NCI-H23 lung
[31] = tested on: SF-539 CNS
[32] = tested on: HL-60(TB) leukemia
[33] = tested on: OVCAR-8 ovarian
[34] = tested on: IGROV1 ovarian
[35] = tested on: ACHN renal
[36] = tested on: SK-OV-3 ovarian
[37] = tested on: OVCAR-3 ovarian
[38] = tested on: DU-145 prostate
[39] = tested on: MCF7 breast
[40] = tested on: PC-3 prostate
[41] = tested on: SN12C renal
[42] = tested on: UO-31 renal
[43] = tested on: HS 578T breast
[44] = tested on: MALME-3M melanoma
[45] = tested on: MDA-MB-435
[46] = tested on: SF-268 CNS
[47] = tested on: HOP-62 NSCLC
[48] = tested on: NCI-H226 lung
[49] = tested on: OVCAR-5 ovarian
[50] = tested on: LOX IMVI melanoma
[51] = tested on: K-562 leukemia
[52] = tested on: SK-MEL-2 melanoma
[53] = tested on: UACC-62 melanoma
[54] = tested on: T-47D breast
[55] = tested on: RPMI-8226 leukemia
[56] = tested on: SK-MEL-28 melanoma
[57] = tested on: OVCAR-4 ovarian
[58] = tested on: HOP-92 NSCLC

Measured: TGI

CONC(C)=O
not listed: [57] | [58]
> 100 µM: all other assays above

COc1ccc(C2=C(N)c3c(Cl)cccc3C2=O)cc1
not listed: [3] | [10] | [42] | [51]
> 100 µM: all other assays above
